In patent US6797255B1, “Methods and compositions for enhancing magnetic resonance imaging” (Mallinckrodt Inc., priority 1985, dated 2004):

Legend:
[1] = Relaxation parameters T1 and T2 of a 10^−3M solution in a 90 MHz NMR experiment; assay type: physicochemical; settings: 10^−3M solution
Method: (§1) The complex, dihydrogen bis(N-[N′-(2,6-diisopropylphenyl)carbamoylmethyl]iminodiaceto)manganese(II) hydrate, was thus isolated as the hydrated species. The solubility of the complex in water was determined to be approximately 0.1% w/v. The relaxation parameters T1 and T2 of a 10-^−3M solution of the complex in a 90 MHz NMR experiment were determined to be 0.107 sec. and 0.007 sec. respectively. The T1 and T2 values for water are 2.51 sec. and 0.150 sec., respectively.
(§2) The relaxation parameters T1 and T2 of a 10^−3M solution of the complex in a 90 MHz NMR experiment were determined to be 126 milliseconds and 1.5 milliseconds, respectively.

rabbit [2] = assay: Tissue T1 and T2 relaxation times 5 min, 15 min or 1 week after 0.05 mmol/kg intravenous dose; assay type: in vivo; settings: 0.05 mmol/kg i.v.
Method: (§3) All experiments employing the complex dihydrogen bis(N-[N′-(2,6-dimethylphenyl)carbamoylmethyl]iminodiaceto)manganese (II) trihydrate were conducted following intravenous administration to rabbits. A 10 mM solution of the complex was used in these studies. Rabbits were anesthetized with ketamine/xylazine prior to treatment. The results given were obtained with a 10 mHz RADX proton spin analyzer.
In another study, employing an intravenous dose of 0.05 mmol of the complex/Kg, one rabbit was killed at time points of 5 min, 15 min or 1 week after dosing. In animals killed at 5 and 15 min, heart and liver T1 and T2 relaxation times were determined with 5 and 10 mHz instruments.

Swiss CF-1 mice = assay: Acute intravenous toxicity determination; assay type: in vivo; settings: for LD50: acute, intravenous, Trihydrate
Method: Dihydrogen Bis(N-[N′-(2,6-dimethylphenyl)carbamoylmethyl]iminidiaceto)manganese(II) trihydrate was dissolved in 0.9% sodium chloride Inj. USP as a 1.25% solution.
Male and female Swiss CF-1 mice with a body weight range of 17.4 to 24.2 grams were used. The mice were housed according to standard procedures and individually marked with picric acid.
The dose schedule was as follows:
Measured single doses were injected into the lateral tail vein at a rate of 1 ml/min. The animals were observed immediately after dosing and during the 7-day observation period for pharmacotoxic reactions. Recording of terminal body weights and general necropsy-of the thoracic and abdominal organs was performed after 7 days.

rabbit [3] = assay: Bile proton T1 and T2 relaxation times over 105 min after intravenous injection; assay type: in vivo; settings: 0.03 mmol/kg i.v., one rabbit
Method: as §3
In a third study, one rabbit received 0.03 mmol of the complex/kg and bile samples were collected at 5-20 min intervals over a 105 min time course and proton T1 and T2 relaxation times were determined. Control bile T1 relaxation time was 944 msec. within 1 min of injection, bile T1 was reduced to 60 msec. Over the 105 minute time course, bile T1 returned to a value of 91 msec, less than 10% of the preinjection control value. The preinjection bile T2 relaxation time was 16 msec.

rabbits = assay: Tissue T1 and T2 relaxation times 45 min after intravenous injection (time course); assay type: in vivo; settings: for T1 relaxation time / T2 relaxation time: 45 min after 0.03 mmol/kg i.v., 10 mHz RADX
Method: as §3
A second study was performed in two rabbits killed 45 min after intravenous injection of 0.03 mmol of the complex/Kg to examine the time course of T1 and T2relaxation enhancement.

[4] = Solubility of the complex in water; assay type: physicochemical
Method: as §1, §2

## Cc1cccc(C)c1NC(=O)CN(CC(=O)[O-])CC(=O)O.Cc1cccc(C)c1NC(=O)CN(CC(=O)[O-])CC(=O)O.O.O.O.[Mn+2] [Example 2]
[1]
  relaxation parameter T1: 126 milliseconds
  relaxation parameter T2: 1.5 milliseconds
Rabbit [2]; killed at 5 and 15 min, 5 and 10 mHz instruments
  heart and liver T1 values: reduced tissue T1 values at both frequencies
Rabbit [2]; rabbit killed at 1 week
  tissue T1 and T2 relaxation times: returned to control values
Swiss CF-1 mice; 0.360 mmol/kg i.v., after 7 days
  Body weight change: +1.75 g
Swiss CF-1 mice; 0.360 mmol/kg i.v., day 1 after dosing
  Mortalities/number tested: 0/4
Swiss CF-1 mice; 0.360 mmol/kg i.v., day 2 after dosing
  Mortalities/number tested: 0/4
Swiss CF-1 mice; 0.360 mmol/kg i.v., day 3 after dosing
  Mortalities/number tested: 0/4
Swiss CF-1 mice; 0.360 mmol/kg i.v., day 4 after dosing
  Mortalities/number tested: 0/4
Swiss CF-1 mice; 0.360 mmol/kg i.v., day 5 after dosing
  Mortalities/number tested: 0/4
Swiss CF-1 mice; 0.360 mmol/kg i.v., day 6 after dosing
  Mortalities/number tested: 0/4
Swiss CF-1 mice; 0.360 mmol/kg i.v., day 7 after dosing
  Mortalities/number tested: 0/4
Swiss CF-1 mice; 0.360 mmol/kg i.v., immediate
  Mortalities/number tested: 0/4
Swiss CF-1 mice; 0.540 mmol/kg i.v., after 7 days
  Body weight change: +2.0 g
Swiss CF-1 mice; 0.540 mmol/kg i.v., day 1 after dosing
  Mortalities/number tested: 2/4
Swiss CF-1 mice; 0.540 mmol/kg i.v., day 2 after dosing
  Mortalities/number tested: 2/4
Swiss CF-1 mice; 0.540 mmol/kg i.v., day 3 after dosing
  Mortalities/number tested: 2/4
Swiss CF-1 mice; 0.540 mmol/kg i.v., day 4 after dosing
  Mortalities/number tested: 2/4
Swiss CF-1 mice; 0.540 mmol/kg i.v., day 5 after dosing
  Mortalities/number tested: 2/4
Swiss CF-1 mice; 0.540 mmol/kg i.v., day 6 after dosing
  Mortalities/number tested: 2/4
Swiss CF-1 mice; 0.540 mmol/kg i.v., day 7 after dosing
  Mortalities/number tested: 2/4
Swiss CF-1 mice; 0.540 mmol/kg i.v., immediate
  Mortalities/number tested: 2/4
Swiss CF-1 mice; 0.630 mmol/kg i.v., after 7 days
  Body weight change: +1.6 g
Swiss CF-1 mice; 0.630 mmol/kg i.v., day 1 after dosing
  Mortalities/number tested: 3/4
Swiss CF-1 mice; 0.630 mmol/kg i.v., day 2 after dosing
  Mortalities/number tested: 3/4
Swiss CF-1 mice; 0.630 mmol/kg i.v., day 3 after dosing
  Mortalities/number tested: 3/4
Swiss CF-1 mice; 0.630 mmol/kg i.v., day 4 after dosing
  Mortalities/number tested: 3/4
Swiss CF-1 mice; 0.630 mmol/kg i.v., day 5 after dosing
  Mortalities/number tested: 3/4
Swiss CF-1 mice; 0.630 mmol/kg i.v., day 6 after dosing
  Mortalities/number tested: 3/4
Swiss CF-1 mice; 0.630 mmol/kg i.v., day 7 after dosing
  Mortalities/number tested: 3/4
Swiss CF-1 mice; 0.630 mmol/kg i.v., immediate
  Mortalities/number tested: 3/4
Swiss CF-1 mice; 0.360-0.630 mmol/kg i.v., mice
  pharmacotoxic reactions immediately after injection: Mild to severe convulsions occurred in all the animals immediately after injections
  pharmacotoxic reactions of surviving animals: mild to severe depression which was resolved within one hour after dosing
Swiss CF-1 mice; 7-day observation
  weight gains: normal
Swiss CF-1 mice; mouse, listed as dihydrogen bis(N-[N′-(2,6-dimethylphenyl)carbamoylmethyl]-iminodiaceto)manganese
  LD50: ~0.5 mmol/kg
Swiss CF-1 mice; mouse, listed as dihydrogen bis(N-[N′-(2,6-dimethylphenyl)carbamoylmethyl]iminodiaceto)-manganese
  LD50: approximately 0.540 mmol/kg
Swiss CF-1 mice; after 7 days
  necropsy findings: did not reveal any abnormalities
Swiss CF-1 mice; mouse i.v. LD50 vs ED50 for hepatic T1 enhancement
  diagnostic safety ratio: approximately 50
Swiss CF-1 mice; mouse, in vivo, iv
  intravenous toxicity profile: favorable intravenous toxicity profile
Rabbit [3]; at 105 min
  bile T1 relative to preinjection control value: less than 10%
Rabbit [3]; gradual increase following injection
  bile T2 relaxation time: 44 ms
Rabbit [3]; over the 105 minute time course (end value)
  bile T1 relaxation time: 91 ms
Rabbit [3]; within 1 min of injection
  bile T1 relaxation time: 60 ms
rabbits; 0.03 mmol/kg i.v.
  tissue T1 relaxation times at 45 min compared with 15 min: decreased to the same extent as noted at 15 min
rabbits; Bladder
  T1 relaxation time: 367 ms
  T2 relaxation time: 72 ms
rabbits; Fat
  T1 relaxation time: 137 ms
  T2 relaxation time: 125 ms
rabbits; Heart
  T1 relaxation time: 265 ms
  T2 relaxation time: 57 ms
rabbits; Large Intestine
  T1 relaxation time: 154 ms
  T2 relaxation time: 47 ms
rabbits; Liver
  T1 relaxation time: 37 ms
  T2 relaxation time: 24 ms
rabbits; Lung
  T1 relaxation time: 438 ms
  T2 relaxation time: 89 ms
rabbits; Pancreas
  T1 relaxation time: 117 ms
  T2 relaxation time: 75 ms
rabbits; Renal cortex
  T1 relaxation time: 143 ms
  T2 relaxation time: 57 ms
rabbits; Renal medulla
  T1 relaxation time: 244 ms
  T2 relaxation time: 91 ms
rabbits; Skeletal muscle
  T1 relaxation time: 315 ms
  T2 relaxation time: 41 ms
rabbits; Small Intestine
  T1 relaxation time: 129 ms
  T2 relaxation time: 48 ms
rabbits; Spleen
  T1 relaxation time: 271 ms
  T2 relaxation time: 71 ms
rabbits; Stomach
  T1 relaxation time: 159 ms
  T2 relaxation time: 47 ms
[4]
  solubility of the complex in water: 2.5 % w/v
  solubility of the complex in water (molar): approximately 3.6×10^−3 M
